Legend:
[1] = tested on: Human Umbilical Vein Endothelial Cells (HUVECS); test: Effects of PDT on inflamed human umbilical vein endothelial cells (MTT viability); format: cell-based; conditions: non-irradiated groups (0 J/cm^2); 25 or 50 μg/mL
Protocol: Test 1 (in vitro Test): Effects of PDT on Human Umbilical Vein Endothelial Cells (HUVECS)
As a first step, we determined if cell death of inflamed HUVECs can be induced by PDT.
HUVECs were seeded in a culture medium at […]. After a predetermined culture period, IL-1β(1 ng/mL) and TNF-α(10 ng/mL) were added to stimulate the cells and, thus, cause inflammation of the cells. After a 1-hour stimulation period, the cells were divided into two groups, and 25 μg/ml of ATX-S10•Na of the present invention was added to one group and 50 μg/ml of ATX-S10•Na to the other group. Subsequently, the cells were incubated at 37° C. for 24 hours.
After the incubation period, laser was irradiated onto the cultured cells (each dosage group was divided into five subgroups, which were irradiated at 0, 15, 30, 50, and 100 J/cm^2). 24 hours after the irradiation, the viability of HUVECs was determined by MTT assay.

[2] = tested on: type II collagen-induced arthritis; test: Effects of PDT on model mice with type II collagen-induced arthritis; format: in vivo; conditions: 5 mg/kg i.v.
Protocol: Test 2 (in vivo Test): Effects of PDT on Model Mice with Type II Collagen-Induced Arthritis Male DBA/1 mice, aged6 to 8 weeks and weighing 15 to 18 g, were used. Arthritis was induced by type II collagen according to the following schedule. On Day 0, 2 mg. of anti-type II collagen antibody cocktail was intraperitoneally injected. On Day 1, 2 mg of anti-type II collagen antibody cocktail was again intraperitoneally injected. On Day 2 and Day 3, 50 μg of lipopolysaccharide (LPS) was intraperitoneally injected to induce type II collagen arthritis. On Day 5, induction of type II collagen arthritis was confirmed. A test group of 5 animals and a control group of 3 animals were intravenously injected with 5 mg/kg of ATX-S10•Na. The test group was exposed to laser irradiation (dose: 30 J/cm^2) 3 hours after administration of ATX-S10•Na. […] Each animal was perfusion-fixed, and joint tissue was collected and stained with Safranin 0. The resulting decalcified tissue sample was subjected to histological analysis.

[3] = tested on: Keratinocytes from a patient with inflammatory keratosis; test: Cytotoxicity of PDT against cultured keratinocytes; format: cell-based, human; conditions: 50 μg/mL; laser 10 J/cm^2; 6 hours after laser irradiation; viable cells prior to irradiation = 100%
Protocol: FIG. 6 is a graph showing cytotoxic effects of PDT using ATX-S10•Na of the present invention on cultured keratinocytes. 50 μg/mL of ATX-S10•Na of the present invention was added to the cell culture. After a predetermined culture period, the cells were washed with PBS and were irradiated with laser at 10 J/cm^2. The viability of the keratinocytes was determined 1, 2, 3, 6, 12, and 24 hours after the irradiation and was plotted on a graph.
Test 3 (in vitro Test): Cytotoxicity Against Cultured Keratinocytes
Keratinocytes were collected from a patient with inflammatory keratosis and were cultured at 37° C. for 24 hours. To the cell culture, 50 μg/mL of ATX-S10•Na of the present invention was added and the cells were further cultured under the same conditions.
Assuming the initial number of the viable cells in the culture medium prior to laser irradiation to be 100%, the viability of the cells was determined at 1, 2, 3, 6, 12, and 24 hours after the irradiation. As shown, 75% of the keratinocytes incubated with ATX-S10•Na died 6 hours after laser irradiation.

TPA-caused dermatitis = test: TPA-induced dermatitis in mouse skin: skin accumulation and PDT after ATX-S10•Na ointment; format: in vivo, mice; conditions: 1% ointment, 3 hours
Protocol: Test 4 (in vivo Test): Induction of Dermatitis in Mouse Skin by Treatment with Tetradecanoyl Phorbol Acetate (TPA) and Therapeutic Effects of PDT Following Application of ATX-S10•Na Ointment Using a hydrophilic ointment base described in Japanese Pharmacopoeia, two hydrophilic ointments, one containing 1% of ATX-S10•Na and the other 10% of the compound, were prepared by a common pharmaceutical technique. Male DBA/1 mice, aged 6 to 8 weeks and weighing 15 to 18 g, were shaved with a clipper and a razor. TPA was then applied to the skin to induce dermatitis. 3) To a test group, the hydrophilic ointment containing 1% ATX-S10•Na was applied. The ointment was applied to the region of the skin where dermatitis was induced and was rinsed off after 3 hours. To a control group, an ATX-S10•Na-free hydrophilic ointment was applied and was also rinsed off after application. […] The test group was then divided into two subgroups: one group was irradiated with laser at 100 J/cm^2 and the other group was not irradiated. Skin histology of each animal was observed.

## C=CC1=C(C)C2=CC3=C(/C=C/NO)C(C)(O)C(=CC4=NC(=CC5=NC(=CC1=N2)C(C)=C5CCC(=O)N[C@@H](CC(=O)[O-])C(=O)[O-])C(CCC(=O)N[C@@H](CC(=O)[O-])C(=O)[O-])=C4C)N3.[Na+].[Na+].[Na+].[Na+] (stereo partly shown) [ATX-S10•Na]
[1]
  cell death of HUVECs: no cell death was observed
[2]; laser 30 J/cm^2, test group
  synovial infiltration (histological analysis of joint tissue): synovial infiltration was suppressed
[2]; no laser irradiation (control group)
  synovial infiltration (histological analysis of joint tissue): significant infiltration of synovial cells
[2]; no laser irradiation (control group), Day 14
  clinical arthritis score: 4
[3]
  keratinocytes died: 75%
TPA-caused dermatitis; laser 100 J/cm^2
  TPA-caused dermatitis inflamed region (skin histology): significant decrease in the inflamed region
TPA-caused dermatitis; non-irradiated group
  TPA-caused dermatitis inflamed region (skin histology): sustained
